Measurements: US20030206968A1, “Fungicidal mixtures” (priority 1999, published 2003)

Legend:
Format in all cases: in vivo
[1] = test system: Botrytis cinerea; assay: Field test, Botrytis cinerea in vines; conditions: Example 33
Procedure: (§1) The trials are carried out under greenhouse (Examples 1 to 32) or field conditions (Examples 33 to 40) in residual or curative applications. The fungicides are applied in single treatments, or in a combination comprising an azolopyrimidine of formula I and a compound selected from the classes (A), (B) and (C) as defined above. The compounds are applied in form of an aqueous spray mix obtained from a concentrated formulation or the technical material.
(§2) For the field study formulated Azolopyrimidine A, B or C and formulated compounds from the classes (A), (B) and (C) were used.
(§3) Assessments of the diseases took place at the indicated day after the application of the compounds. Per cent infected leaf area infected was evaluated. The efficacy of the compounds/compounds mixtures to control the diseases was calculated by using the formula given above under item 4: […]
(§4) Synergy was calculated using the % disease control values of specific treatments for the two COLBY formula given hereinabove
The compounds are applied according to good agricultural practice in the form of an aqueous spray mix obtained from a concentrated formulation or the technical material at a rate of 400 l/ha. The disease control is evaluated according to the formula given for the greenhouse tests. […]

[2] = test system: Blumeria graminis; assay: Field test, Blumeria graminis on wheat; conditions: metconazole 45 g/ha alone, 15 days after application
Procedure: as §1, §2, §3, §4
(§5) The compounds are applied according to good agricultural practice in the form of an aqueous spray mix obtained from a concentrated formulation or the technical material at a rate of 400 l/ha. The disease control is evaluated according to the formula given for the greenhouse tests.
(§6) Fungicidal efficacy of the mixture of (S)-Azolopyrimidine C+cyproconazole in the field against Blumeria graminis on wheat 17 days after application The tank mix was obtained from a SC formulation containing 100 g (S)-Azolopyrimidine C per liter and an EC formulation containing 60 g cyproconazole per liter.
as §6, with “C+azoxystrobin” for “C+cyproconazole”, “a SC” for “an EC”, “250” for “60”, “azoxystrobin” for “cyproconazole”, “kg.” for “liter.”
(§7) Fungicidal efficacy of the mixture of Azolopyrimidine A and different cereal fungicides in the field against Blumeria graminis on wheat 15 days after application The tank mix was obtained from an SC formulation containing 100 g Azolopyrimidine A per liter and commercially available formulations of metconazole, epoxiconazole or kresoxim methyl, respectively.

[3] = test system: Puccinia recondita; assay: Greenhouse, Puccinia recondita on wheat, 1 day residual; conditions: Puccinia recondita, Example 11, read-out: Observed Efficacy
Description: as §1, with “The” for “The trials are carried out under greenhouse (Examples 1 to 32) or field conditions (Examples 33 to 40) in residual or curative applications. The”
(§8) 1. Seed is planted in 6 cm diameter plastic pots and maintained in the greenhouse.
(§9) 2. When the primary leaf is fully expanded in the case of cereals or several leaves are present in the case of dicots, formulated test compounds are sprayed with a three nozzle overhead fungicide sprayer to near run-off. Alternatively, a single nozzle overhead track sprayer is used for application of the compounds to cereals at a rate of 200 l/ha. Plants are then allowed to air-dry.
(§10) 3. Inoculation precedes treatment in the case of curative evaluations and follows treatment in case of residual evaluations. For inoculation of powdery mildew disease, plants are set up on greenhouse benches with bottom watering mats and inoculated by dusting them with conidia from infected plants. Between inoculation and treatment for curative evaluations and between treatment and inoculation for residual evaluations, plants are maintained in the greenhouse with bottom watering.
(§11) For inoculation of non-powdery mildew diseases, an aqueous spore suspension of the pathogen is applied to the plant and the plants are kept 1-2 days in a moist infection chamber before being returned to the greenhouse where they are maintained by bottom watering.
(§12) 4. Disease on the foliage as percent leaf area with disease symptoms/signs is evaluated about 7 days after inoculation. In the case of wheat, the tips and bases of the leaves are excluded from the evaluation. [formula]
(§13) 1. Technical compounds are formulated in a solvent/surfactant system consisting of 5% acetone and 0.05% Tween 20 in deionized water. Compounds are dissolved in acetone prior to addition of the water; the Tween 20 can be added through either the acetone or the water. Dilutions are made using the solvent/surfactant system. Formulated compounds are prepared using deionized water.
(§14) 2. Two kinds of controls are included: Plants treated with the solvent/surfactant solution and inoculated (Solvent Blank). Untreated plants which are inoculated (Inoculated Control).
as §3, §4
Fungicidal efficacy of the mixture of Azolopyrimidine C+metconazole (1 day residual) against Puccinia recondita on wheat The tank mix was obtained from a SC formulation containing 100 g Azolopyrimidine C per liter and an EC containing 100 g metconazole per liter. […]
Fungicidal efficacy of the mixture of Azolopyrimidine C+fluazinam (1 day residual) against Puccinia recondita on wheat The tank mix was obtained from technical material of Azolopyrimidine C and a SC formulation containing 500 g fluazinam per liter. […]

[4] = test system: Septoria tritici; assay: Field test, Septoria tritici on wheat
Procedure: as §1, §2, §3, §4, §5
Fungicidal efficacy of the mixture of Azolopyrimidine C+metconazole in the field against Septoria tritici on wheat The tank mix was obtained from an EC formulation containing 150 g Azolopyrimidine C per liter and a SL formulation containing 60 g metconazole per liter. The observed and expected efficacies with different rates are given in Table XXXIVa (19 days after application) and Table XXXIVb (25 days after application):
Fungicidal efficacy of the mixture of (S)-Azolopyrimidine C+kresoxim methyl in the field against Septoria tritici on wheat The tank mix was obtained from a SC formulation containing 100 g (S)-Azolopyrimidine C per liter and a WG formulation containing 500 g kresoxim methyl per kg. The observed and expected efficacies with different rates are given in Tables XXXVa (7 days after application), XXXVb (22 days after application), XXXVc (34 days after application), and XXXVd (41 days after application):
as §7, with “fungicides” for “fungicides in”, “Septoria tritici” for “Blumeria graminis”, “propiconazole,” for “kresoxim methyl,”

[5] = test system: Rhynchosporium secalis; assay: Greenhouse, Rhynchosporium secalis on barley, 1 day residual; conditions: Example 8; dose rate 100 ppm
Procedure: as §1, §8
2. When the primary leaf is fully expanded in the case of cereals or several leaves are present in the case of dicots, formulated test compounds are sprayed with a three nozzle overhead fungicide sprayer to near run-off. […]
4. Disease on the foliage as percent leaf area with disease symptoms/signs is evaluated about 7 days after inoculation. […]
as §3
Synergy was calculated using the % disease control values of specific treatments for the two COLBY formula given hereinabove […]

[6] = test system: Pyrenophora teres; assay: Greenhouse, Pyrenophora teres on barley, 1 day residual; conditions: Example 10
Procedure: as §1, §8, §9, §10, §11, §12, §13, §14, §3, §4
Fungicidal efficacy of the mixture of Azolopyrimidine C+metconazole (1 day residual) against Pyrenophora teres on barley The tank mix was obtained from a SC formulation containing 100 g Azolopyrimidine C per liter and an EC containing 100 g metconazole per liter.

[7] = test system: Puccinia recondita; assay: Field test, Puccinia recondita on wheat; conditions: metconazole 45 g/ha alone, 50 days after application
Procedure: as §1, §2, §3, §4, §5
as §7, with “Puccinia recondita” for “Blumeria graminis”, “50” for “15”, “epoxiconazole, propiconazole” for “epoxiconazole”

[8] = test system: Septoria tritici; assay: Greenhouse, Septoria tritici on wheat, 1 day residual; conditions: Example 9
Procedure: as §1, §8, §9, §10, §11, §12, §13, §14, §3, §4
Fungicidal efficacy of the mixture of Azolopyrimidine C+metconazole (1 day residual) against Septoria tritici on wheat The tank mix was obtained from a SC formulation containing 100 g Azoplopyrimidine C per liter and an EC containing 100 g metconazole per liter.

In the case of `Fc1cccc(Cl)c1-c1c(Cl)nc2ncnn2c1NCC(F)(F)F` [Azolopyrimidine B, 5-chloro-6-(2-chloro-6-fluorophenyl)-7-(2,2,2-trifluoroethylamino)-[1,2,4]triazolo[1,5-a]pyrimidine], the “Observed Efficacy” value ([1]; dose rate 250 g/ha) is reported as 58%.
With `CC1(C)CCC(Cc2ccc(Cl)cc2)C1(O)Cn1cncn1` (stereo not shown) [metconazole] the “Observed Efficacy” value [2] was 54, the pest or weed control at 2 ppm ([3]; dose rate 2 ppm) was 0% and the pest or weed control at 8 ppm ([3]; dose rate 8 ppm) was 0%. For the same compound, the pest or weed control at 10 ppm ([3]; dose rate 10 ppm) was 8%, the pest or weed control at 25 ppm ([3]; dose rate 25 ppm) was 14% and the pest or weed control at 40 ppm ([3]; dose rate 40 ppm) was 31%. For the same compound, the pest or weed control at 50 ppm ([3]; dose rate 50 ppm) was 72%, the pest or weed control at 125 ppm ([3]; dose rate 125 ppm) was 97% and the “Observed Efficacy” value ([4]; Example 34, 19 days after application, dose rate 15 g/ha) was 9%. For the same compound, the “Observed Efficacy” value ([4]; Example 34, 19 days after application, dose rate 30 g/ha) was 36%, the “Observed Efficacy” value ([4]; Example 34, 19 days after application, dose rate 45 g/ha) was 24% and the “Observed Efficacy” value ([4]; Example 34, 25 days after application, dose rate 15 g/ha) was 33%. For the same compound, the “Observed Efficacy” value ([4]; Example 34, 25 days after application, dose rate 60 g/ha) was 48%, the “Observed Efficacy” value ([4]; metconazole 45 g/ha alone, 15 days after application, field, wheat) was 77 and the “Observed Efficacy” value [5] was 87%. For the same compound, the “Observed Efficacy” value ([6]; dose rate 10 ppm) was 4%, the “Observed Efficacy” value ([6]; dose rate 25 ppm) was 9% and the “Observed Efficacy” value ([6]; dose rate 40 ppm) was 34%. For the same compound, the “Observed Efficacy” value ([6]; dose rate 125 ppm) was 68%, the “Observed Efficacy” value ([6]; dose rate 200 ppm) was 73% and the “Observed Efficacy” value [7] was 75. For the same compound, the “Observed Efficacy” value ([8]; dose rate 2 ppm) was 0%, the “Observed Efficacy” value ([8]; dose rate 5 ppm) was 0% and the “Observed Efficacy” value ([8]; dose rate 8 ppm) was 0%. For the same compound, the “Observed Efficacy” value ([8]; dose rate 10 ppm) was 0% and the “Observed Efficacy” value ([8]; dose rate 25 ppm) was 0%.
For `Cc1cc(C)nc(Nc2ccccc2)n1` [pyrimethanil], the “Observed Efficacy” value ([1]; dose rate 500 g/ha) was 66%.
